Measurements: US7517902B2, “Substituted indazoles, compositions containing the same, and the preparation and use thereof” (Aventis Pharma S.A., priority 2004, dated 2009)
pIC50: −log10 of the molar value.

Assays:
Format in all cases: biochemical
human KDR enzyme = biological target: T1, human KDR enzyme (Homo sapiens, UniProt P35968); experiment: KDR substrate phosphorylation assay (scintillation, 96-well plate)
T1 construct: The cytoplasmic domain of the human KDR enzyme was cloned in the form of a GST fusion; GST; made in house; host or cells: SF21 insect cells (baculovirus, pFastBac)
T1 sequence (P35968 786-1356 limits assumed): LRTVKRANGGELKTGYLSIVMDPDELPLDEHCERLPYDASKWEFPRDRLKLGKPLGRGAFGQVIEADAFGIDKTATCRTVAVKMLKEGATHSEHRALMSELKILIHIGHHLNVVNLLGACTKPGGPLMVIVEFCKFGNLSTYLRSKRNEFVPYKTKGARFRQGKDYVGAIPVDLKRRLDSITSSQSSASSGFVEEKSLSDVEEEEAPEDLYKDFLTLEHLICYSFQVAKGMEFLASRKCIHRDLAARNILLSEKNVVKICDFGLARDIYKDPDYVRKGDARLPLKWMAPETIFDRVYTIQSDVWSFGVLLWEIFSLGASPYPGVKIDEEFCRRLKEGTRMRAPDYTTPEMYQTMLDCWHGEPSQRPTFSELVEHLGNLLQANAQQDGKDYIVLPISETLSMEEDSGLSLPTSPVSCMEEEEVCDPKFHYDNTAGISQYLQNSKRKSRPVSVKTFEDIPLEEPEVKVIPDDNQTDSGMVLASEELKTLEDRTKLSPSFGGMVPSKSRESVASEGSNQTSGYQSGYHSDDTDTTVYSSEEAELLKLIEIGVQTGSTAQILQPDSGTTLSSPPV
Procedure: The inhibitory effect of the compounds is determined in an assay of substrate phosphorylation by the KDR enzyme in vitro using a scintillation technique (96-well plate, NEN).
The cytoplasmic domain of the human KDR enzyme was cloned in the form of a GST fusion into the baculovirus expression vector pFastBac. The protein was expressed in SF21 cells and purified to approximately 60% homogeneity.
The KDR kinase activity is measured in 20 mM MOPS, 10 mM MgCl2, 10 mM MnCl2, 1 mM DTT, 2.5 mM EGTA, 10 mM β-glycerophosphate, pH=7.2, in the presence of 10 mM MgCl2, 100 μM Na3VO4, 1 mM NaF. 10 μl of the compound are added to 70 μl of kinase buffer, containing 100 ng of KDR enzyme at 4° C. The reaction is triggered by adding 20 μl of solution containing 2 μg of substrate (SH2-SH3 fragment of PLCγ expressed in the form of a GST fusion protein), 2 μCi γ^33P[ATP] and 2 μM cold ATP. After 1 hour of incubation at 37° C., the reaction is stopped by adding 1 volume (100 μl) of 200 mM EDTA. The incubation buffer is withdrawn and the wells are washed three times with 300 μl of PBS. The radioactivity is measured in each well using a Top Count NXT radioactivity counter (Packard).
The background noise is determined by measuring the radioactivity in four different wells containing the radioactive ATP and the substrate alone.
A control for total activity is measured in four different wells containing all of the reagents (γ^33P-[ATP], KDR and PLCγ substrate), but in the absence of compound.
The inhibition of KDR activity with the compound of the invention is expressed in percentage inhibition of the control activity determined in the absence of compound.
The compound SU5614 (Calbiochem) (1 μM) is included in each plate as an inhibition control.

Aurora2 = biological target: T2, Aurora2 (Homo sapiens, UniProt O14965); experiment: Aurora2 enzyme assay, NuMA substrate phosphorylation (Flashplate); conditions: read-out: IC 50 Aurora2
T2 construct: Aurora 2: whole recombinant protein comprising an N-terminal histidine tail; His tag (histidine tail) (N); made in house; host or cells: E. coli
T2 sequence (O14965 1-403): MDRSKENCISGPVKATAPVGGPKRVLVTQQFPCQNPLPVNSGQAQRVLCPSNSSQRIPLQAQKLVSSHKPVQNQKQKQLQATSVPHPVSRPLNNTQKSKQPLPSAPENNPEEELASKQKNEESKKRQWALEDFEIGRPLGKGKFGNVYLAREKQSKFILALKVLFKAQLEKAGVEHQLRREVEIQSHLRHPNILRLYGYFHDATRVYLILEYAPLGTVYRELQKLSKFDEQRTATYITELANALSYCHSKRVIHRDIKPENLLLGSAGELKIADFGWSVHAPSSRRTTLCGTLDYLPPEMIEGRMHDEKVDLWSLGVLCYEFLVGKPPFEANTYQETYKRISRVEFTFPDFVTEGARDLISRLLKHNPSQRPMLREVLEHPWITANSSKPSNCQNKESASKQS
Procedure: The inhibitory effect of compounds with respect to the kinases Aurora1 and Aurora2 is determined by an enzyme assay employing radioactivity detection.
The kinase activity of Aurora 1 and Aurora 2 is evaluated by the phosphorylation of the substrate Numa-histidine in the presence of radiolabeled ATP ([^33P]ATP), using 96-well Flashplate plates in which nickel chelate is fixed to the surface of the microplate. The amount of ^33P phosphate incorporated in the NuMA substrate is proportional to the activity of the enzyme Aurora1 or Aurora2.
The proteins are produced in the protein production laboratory of the SanofiAventis group.
Aurora 2: whole recombinant protein comprising an N-terminal histidine tail, expressed in E. coli and purified to more than 82%.
NuMA (nuclear protein that associates with the mitotic apparatus) fragment of 424 amino acids, expressed in E. coli, whose N-terminal end has been labeled with histidine and used as a substrate for the two Aurora enzymes.
The microplates used are 96-well Flash-Plate plates with nickel chelate (Perkin Elmer, model SMP107).
The products for evaluation are incubated in a reaction volume of 100 μL per well in the presence of 10 nM of Aurora 1 or Aurora 2, 500 nM of NuMA substrate in a buffer composed of 50 mM of Tris/HCl (pH 7.5), 50 mM NaCl, 5 mM MgCl2 (Aurora-B) or 10 mM MgCl2 (Aurora-A) and 1 mM of DTT, at 37° C.
In each well, 80 μL of the enzyme/substrate incubation buffer are distributed, followed by 10 μL of the product to be evaluated, in variable concentrations. The reaction is initiated by adding 1 μM of final ATP containing 0.2 μCi of [^33P]ATP (10 μL). After 30 minutes of incubation, the reaction is terminated by simply removing the reaction buffer and each well is washed twice with 300 μl of the Tris/HCl buffer. The radioactivity is then measured in each well by means of a scintillation apparatus, Packard, Top count model.
The control enzyme activity of Aurora is expressed by the number of counts per minute obtained within 30 minutes, after deduction of the background noise (reaction mixture not containing the enzyme). The evaluation of the various test products is expressed in percentage inhibition of the Aurora activity relative to the control.

human Tie2 = biological target: T3, human Tie2 (Homo sapiens, UniProt Q02763); experiment: Tie2 assay of PLC phosphorylation (FlashPlate); conditions: read-out: IC 50 TIE2
T3 construct: amino acids of the intracellular domain 776-1124; made in house
T3 sequence (Q02763 776-1124): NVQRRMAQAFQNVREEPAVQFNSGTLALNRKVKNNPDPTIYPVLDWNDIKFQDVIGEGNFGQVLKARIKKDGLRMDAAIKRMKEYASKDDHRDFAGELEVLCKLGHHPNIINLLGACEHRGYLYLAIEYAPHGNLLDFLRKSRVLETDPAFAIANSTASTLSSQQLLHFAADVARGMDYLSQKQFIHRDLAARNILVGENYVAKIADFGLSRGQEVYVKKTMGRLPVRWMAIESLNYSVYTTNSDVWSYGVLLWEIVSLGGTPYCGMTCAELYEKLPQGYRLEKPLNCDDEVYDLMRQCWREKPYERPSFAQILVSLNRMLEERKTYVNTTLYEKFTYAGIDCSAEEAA
Procedure: The coding sequence of human Tie2, corresponding to the amino acids of the intracellular domain 776-1124, was generated by PCR, using the cDNA isolated from human placenta as a model. This sequence was introduced into a baculovirus expression vector pFastBacGT in the form of a GST fusion protein.
The inhibitory effect of the molecules is determined in an assay of PLC phosphorylation by Tie2 in the presence of GST-Tie2 purified to approximately 80% homogeneity. The substrate is composed of the SH2-SH3 fragments of PLC expressed in the form of a GST fusion protein.
The kinase activity of Tie2 is measured in a 20 mM MOPS buffer, pH 7.2, containing 10 mM MgCl2, 10 mM MnCl2, 1 mM DTT, 10 mM of glycerol-phosphate. In a 96-well FlashPlate plate, kept on ice, a reaction mixture is deposited which is composed of 70 μl of kinase buffer containing 100 ng of GST-Tie2 enzyme per well. Subsequently 10 μl of the test molecule diluted to a concentration of 10% maximum in DMvSO are added. For a given concentration, each measurement is carried out in quadruplicate. The reaction is initiated by adding 20 μl of solution containing 2 μg of GST-PLC, 2 μM of cold ATP and 1 μCi of ^33P[ATP]. After 1 hour of incubation at 37° C., the reaction is terminated by adding 1 volume (100 μl) of 200 mM EDTA. Following removal of the incubation buffer, the wells are washed three times with 300 μl of PBS. The radioactivity is measured on a Wallac MicroBeta 1450.
The inhibition of Tie2 activity is calculated and expressed as a percentage inhibition relative to the control activity determined in the absence of compound.

SMILES | pIC50 (human KDR enzyme) | pIC50 (Aurora2) | pIC50 (human Tie2)
O=CNc1n[nH]c2c(F)c(-c3ccc(NC(=O)Nc4cc(C(F)(F)F)ccc4F)cc3)ccc12 [Example 28, 1-(4-(7-Fluoro-3-formylamino-1H-indazol-6-yl}phenyl)-3-(2-fluoro-5-tri-fluoromethylphenyl)urea] | 6.79 | 6.28 | 6.75
Cc1ccc(-n2nc(C(C)(C)C)cc2NC(=O)Nc2ccc(-c3ccc4c(N)n[nH]c4c3F)cc2)cc1 [Example 25, 1-[4-(3-Amino-7-fluoro-1H-indazol-6-yl)phenyl]-3-(5-tert-butyl-2-p-tolyl-2H-pyrazol-3-yl)urea] | 7.96 | 7.03 | 7.77
Cc1cc(-c2ccc3c(NC(=O)c4ccsc4)n[nH]c3c2F)ccc1NC(=O)Nc1cc(C(F)(F)F)ccc1F [Example 23, 1-(4-{7-Fluoro-3-[(thiophen-3-yl)carbonylamino]-1H-indazol-6-yl}-2-methylphenyl)-3-(2-fluoro-5-trifluoromethylphenyl)urea] | 7.82 | 6.53 | 7.80
CC(=O)Nc1n[nH]c2c(F)c(-c3ccc(NC(=O)Nc4cc(C(F)(F)F)ccc4F)cc3)ccc12 [Example 27, 1-(4-{7-Fluoro-3-acetylamino-1H-indazol-6-yl}phenyl)-3-(2-fluoro-5-trifluoromethylphenyl)urea] | 7.10 | 6.47 | 6.84
Nc1n[nH]c2c(F)c(-c3ccc(NC(=O)Nc4cccc(C(F)(F)F)c4)cc3)ccc12 [Example 19, 1-[4-(3-Amino-7-fluoro-1H-indazol-6-yl)phenyl]-3-(3-trifluoromethylphenyl)urea] | 6.48 | 7.04 | 6.64
O=C(Nc1ccccc1)Nc1ccc(-c2ccc3c(NC(=O)c4ccsc4)n[nH]c3c2F)cc1 [Example 12, 1-(4-{7-Fluoro-3-[(thiophen-3-yl)carbonylamino]-1H-indazol-6-yl}phenyl)-3-phenylurea] | 5.56 | 7.85 | 7.44
O=C(Nc1ccc(-c2ccc3c(NC(=O)C4CCCN4)n[nH]c3c2F)cc1)Nc1cc(C(F)(F)F)ccc1F [Example 26, 1-(4-{7-Fluoro-3-[(L-pyrrolidin-2-yl)carbonylamino]-1H-indazol-6-yl}phenyl)-3-(2-fluoro-5-trifluoromethylphenyl)urea] | 5.98 | 5.47 | 6.20
O=C(Nc1ccc(-c2ccc3c(NC(=O)c4ccsc4)n[nH]c3c2)cc1)Nc1cc(C(F)(F)F)ccc1F [Example 10, 1-(4-[3-[(Thiophen-3-yl)carbonylamino]-1H-indazol-6-yl}phenyl)-3-(2-fluoro-5-trifluoromethylphenyl)urea] | 6.78 | 6.77 | 7.74
O=C(Nc1ccc(-c2ccc3c(NC(=O)c4ccsc4)n[nH]c3c2F)cc1)Nc1ccccc1F [Example 14, 1-(4-{7-Fluoro-3-[(thiophen-3-yl)carbonylamino]-1H-indazol-6-yl}phenyl)-3-(2-fluorophenyl)urea] | 5.38 | 7.64 | 7.30
CC(C)(C)c1cc(NC(=O)Nc2ccc(-c3ccc4c(NC(=O)c5ccsc5)n[nH]c4c3F)cc2)no1 [Example 13, 1-(4-{7-Fluoro-3-[(thiophen-3-yl)carbonylamino]-1H-indazol-6-yl}phenyl)-3-(5-tert-butylisoxazol-3-yl)urea] | 7.54 | 7.19 | 7.51
